PMC7816042, “Insights into the Structure-Activity Relationship of Glycosides as Positive Allosteric Modulators Acting on P2X7 Receptors” (Molecular Pharmacology, 2021)
Several values for one entry are separate records, joined by “and”; a condition that tells them apart may be missing. Equal values may be shown once. Where a name gives a salt, the structure may show the parent alone.

Biological target: T1, human P2X7 (Homo sapiens, UniProt Q99572)
T1 construct: expressed in transfected cells
T1 sequence (Q99572 1-595): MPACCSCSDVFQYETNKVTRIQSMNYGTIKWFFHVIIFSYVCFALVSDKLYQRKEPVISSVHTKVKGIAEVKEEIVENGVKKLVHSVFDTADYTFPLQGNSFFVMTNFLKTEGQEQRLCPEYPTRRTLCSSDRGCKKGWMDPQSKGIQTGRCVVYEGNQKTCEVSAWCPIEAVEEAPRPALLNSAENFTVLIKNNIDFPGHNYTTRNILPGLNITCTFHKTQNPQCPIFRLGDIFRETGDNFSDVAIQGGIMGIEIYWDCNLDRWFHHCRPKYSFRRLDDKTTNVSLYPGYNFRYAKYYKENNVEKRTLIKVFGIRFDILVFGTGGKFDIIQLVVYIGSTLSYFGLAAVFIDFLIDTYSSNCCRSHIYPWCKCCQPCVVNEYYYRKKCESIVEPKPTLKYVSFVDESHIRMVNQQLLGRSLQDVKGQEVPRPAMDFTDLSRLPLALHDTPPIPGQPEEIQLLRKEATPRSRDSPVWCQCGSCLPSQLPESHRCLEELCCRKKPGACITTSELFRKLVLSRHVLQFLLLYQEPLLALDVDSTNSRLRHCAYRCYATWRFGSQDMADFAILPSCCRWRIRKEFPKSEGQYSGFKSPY
Assay: YO-PRO-1 dye uptake assay in HEK-hP2X7 cells
Type: cell-based
Details: for ATP-induced YO-PRO-1 response in fixed-concentration screen: 200 µM ATP, compared with ATP + DMSO; for ATP-induced YO-PRO-1 response in fixed-concentration screen / PAM effect on ATP dose-response curve / EC50 ratio / Maximum response (fold increase): 10 µM glycoside; for PAM effect on ATP dose-response curve: HEK-hP2X7, result in words; for EC50 ratio: average EC50 for ATP + vehicle of each set of experiments used; for Maximum response (fold increase): maximum response defined at 1 mM ATP
Method: ATP-induced dye uptake experiments were performed as described previously ([Bidula et al., 2019b]). Briefly, HEK-hP2X7 cells were plated at 2 × 10^4 cells per well (100 μl per well) in complete medium and left overnight to attach to poly-D-lysine–coated 96-well plates. YO-PRO-1 iodide was prepared in a low divalent buffered solution ([…], 2 mM KCl, 13 mM D-glucose, 10 mM HEPES, 0.2 mM CaCl2 pH 7.3) to a final concentration of 2 μM. Medium was removed from the plate using a manual multichannel pipette and YO-PRO-1 containing buffer applied to wells (180 μl per well). […] A Flexstation 3 plate reader (Molecular Devices, Sunnyvale, CA) was used to record YO-PRO-1 fluorescence in HEK-hP2X7 for 300 seconds after the addition of ATP (at 10× final concentration) with/without ginsenoside compounds or vehicle (DMSO). Plates were allowed to warm up to 37°C for 10 minutes before initiating the recording. Baseline recordings were made for 40 seconds before compound addition using the Flexstation 3 fluidics system. YO-PRO-1 fluorescence was measured at 520 nm after excitation at 490 nm (auto cutoff at 495 nm), and the sample interval was 3.5 seconds. Flexstation settings were photomultiplier tube (PMT) medium, six reads per well, pipette height 170, and a rate of injection of 3. Data were acquired using Softmax Pro version 5.4 (Molecular Devices). To analyze the data, area under the dye uptake curve was calculated in Softmax Pro version 5 using zero baseline data with a lag time of 50 seconds (50–300 seconds).
Results are expressed as means ± S.D. from the indicated number of experiments. For YO-PRO-1 dye uptake and intracellular calcium experiments, each independent experiment used triplicate wells, and the means of the replicates were collated and plotted. Technical replicates were used to ensure reliability of fluorescence values. […] Dose-response curves were plotted by a nonlinear regression fit with variable slope using GraphPad Prism software version 7. Half-maximal responses are expressed as EC50 values with 95% confidence intervals. These values were calculated from the collated data for each compound from three independent experiments. Statistical differences were determined by analysis of the data by one-way ANOVA followed by Dunnett’s multiple comparison test or Sidak’s multiple comparison test using GraphPad Prism version 7. P < 0.05 was the accepted minimum level of significance.

Row | SMILES | ATP-induced YO-PRO-1 response in fixed-concentration screen | PAM effect on ATP dose-response curve | EC50 ratio | Maximum response (fold increase) | Effect of AZ10606120 pretreatment on response to ATP + glycoside (P2X7 dependence) (10 µM AZ10606120 pretreatment) | Toxic effect on cells (YO-PRO-1 uptake without ATP or without P2X7)
1 | CC(C)=CCC[C@](C)(O)[C@H]1CC[C@]2(C)[C@@H]1[C@H](O)C[C@@H]1[C@@]3(C)CC[C@H](O[C@@H]4O[C@H](CO)[C@@H](O)[C@H](O)[C@H]4O[C@@H]4O[C@H](CO)[C@@H](O)[C@H](O)[C@H]4O)C(C)(C)[C@@H]3CC[C@]12C (single isomer, unassigned) [ginsenoside-Rg3 (mixed isomers), ginsenoside-Rg3] | small increase in the ATP-induced YO-PRO-1 response, which was not statistically significant | – | – | – | – | –
2 | CC[C@H](CC[C@@H](C)[C@H]1CC[C@H]2[C@@H]3CC=C4C[C@@H](O[C@@H]5O[C@H](CO)[C@@H](O)[C@H](O)[C@H]5O)CC[C@]4(C)[C@H]3CC[C@]12C)C(C)C [Daucosterol, daucosterol] | – | no effect on the ATP dose-response curves | 0.7 | 1.33 fold | – | –
3 | COC(=O)[C@@]1(C)CC[C@]2(C(=O)O)CC[C@]3(C)C(=CC[C@@H]4[C@@]5(C)C[C@H](O)[C@H](O[C@@H]6OC[C@@H](O[C@@H]7O[C@H](CO)[C@@H](O)[C@H](O)[C@H]7O)[C@H](O)[C@H]6O)[C@@](C)(CO)[C@@H]5CC[C@]43C)[C@@H]2C1 [Esculentoside A, esculentoside A] | no modulation of P2X7 | inactive | 0.8 | 0.94 fold | – | –
4 | CC(C)=CCC[C@@](C)(O)[C@H]1CC[C@]2(C)[C@@H]1[C@H](O)C[C@@H]1[C@@]3(C)CC[C@H](O[C@@H]4O[C@H](CO)[C@@H](O)[C@H](O)[C@H]4O)C(C)(C)[C@@H]3CC[C@]12C [Ginsenoside-20(R)-Rh2, 20(R)-ginsenoside-Rh2] | – | – | 0.8 | 1.53 fold | – | –
5 | CC(C)=CCC[C@](C)(O)[C@H]1CC[C@]2(C)[C@@H]1[C@H](O)C[C@@H]1[C@@]3(C)CC[C@H](O[C@@H]4O[C@H](CO)[C@@H](O)[C@H](O)[C@H]4O)C(C)(C)[C@@H]3CC[C@]12C [Ginsenoside-20(S)-Rh2, 20(S)-ginsenoside-Rh2] | – | – | 1.8 | 2.6 fold | – | –
6 | CC(C)=CCC[C@](C)(O[C@@H]1O[C@H](CO[C@@H]2O[C@H](CO)[C@@H](O)[C@H](O)[C@H]2O)[C@@H](O)[C@H](O)[C@H]1O)[C@H]1CC[C@]2(C)[C@@H]1[C@H](O)C[C@@H]1[C@@]3(C)CC[C@H](O[C@@H]4O[C@H](CO)[C@@H](O)[C@H](O)[C@H]4O[C@@H]4O[C@H](CO)[C@@H](O)[C@H](O)[C@H]4O)C(C)(C)[C@@H]3CC[C@]12C [Ginsenoside-Rb1, ginsenoside-Rb1] | – | only type I PAM activity | 1.2 | 1.9 fold and 1.96 fold | – | –
7 | CC1(C)[C@@H](O[C@H]2O[C@H](C(=O)O)[C@@H](O)[C@H](O)[C@H]2O[C@@H]2O[C@H](C(=O)O)[C@@H](O)[C@H](O)[C@H]2O)CC[C@]2(C)[C@H]3C(=O)C=C4[C@@H]5C[C@@](C)(C(=O)O)CC[C@]5(C)CC[C@@]4(C)[C@]3(C)CC[C@@H]12 [Glycyrrhizic acid, glycyrrhizic acid] | no modulation of P2X7 | – | – | – | – | –
8 | CC(C)=CCC[C@@](O)(CO[C@@H]1O[C@H](CO)[C@@H](O)[C@H](O)[C@H]1O)[C@H]1CC[C@]2(C)[C@@H]1CC[C@@H]1[C@@]3(C=O)CC[C@H](O[C@@H]4OC[C@H](O)[C@H](O[C@@H]5OC[C@@H](O)[C@H](O)[C@H]5O)[C@H]4O[C@@H]4O[C@@H](C)[C@H](O)[C@@H](O)[C@H]4O)C(C)(C)[C@@H]3CC[C@]12C [Gypenoside XLIX, gypenoside XLIX] | small increase in the ATP-induced YO-PRO-1 response, which was not statistically significant | did not reduce the EC50 value for ATP | 0.9 | 1.9 fold | – | –
9 | C[C@H](CC[C@@H](O[C@@H]1O[C@H](CO[C@@H]2O[C@H](CO)[C@@H](O)[C@H](O)[C@H]2O)[C@@H](O)[C@H](O)[C@H]1O[C@@H]1O[C@H](CO)[C@@H](O)[C@H](O)[C@H]1O)C(C)(C)O)[C@H]1CC[C@@]2(C)[C@@H]3CC=C4[C@@H](CC[C@H](O[C@@H]5O[C@H](CO[C@@H]6O[C@H](CO)[C@@H](O)[C@H](O)[C@H]6O)[C@@H](O)[C@H](O)[C@H]5O)C4(C)C)[C@]3(C)[C@H](O)C[C@]12C [Mogroside V, mogroside V] | no modulation of P2X7 | – | – | – | – | –
10 | C[C@@H]1O[C@@H](O[C@H]2C[C@@H](O)[C@]3(CO)[C@H]4[C@H](O)C[C@]5(C)[C@@H](C6=CC(=O)OC6)CC[C@]5(O)[C@@H]4CC[C@]3(O)C2)[C@H](O)[C@H](O)[C@H]1O [Ouabain, ouabain, reference compound] | – | no effect on the ATP dose-response curves | 1.1 | 1.08 fold | – | –
11 | CC(=O)O[C@@H]1C[C@]2(O)[C@H](CC[C@]3(C)[C@@H](c4ccc(=O)oc4)CC[C@@]32O)[C@@]2(C)CC[C@H](O[C@@H]3O[C@H](CO)[C@@H](O)[C@H](O)[C@H]3O)C=C12 [Scilliroside] | – | no effect on the ATP dose-response curves | 1.3 | 1.07 fold | – | –
12 | C[C@H]1CC[C@@H]2[C@@H](C)[C@H]3[C@H](C[C@H]4[C@@H]5CC=C6C[C@@H](O[C@@H]7O[C@H](CO)[C@H](O)[C@H](O[C@@H]8O[C@H](CO)[C@@H](O)[C@H](O)[C@H]8O)[C@H]7O[C@@H]7O[C@@H](C)[C@H](O)[C@@H](O)[C@H]7O)CC[C@]6(C)[C@H]5CC[C@]34C)N2C1 [Solanine, solanine hydrochloride] | large increase | – | – | – | unaffected by AZ10606120 pretreatment | toxic effect on the cells
13 | CC(C)=CCC[C@](C)(O[C@@H]1O[C@H](CO[C@@H]2OC[C@@H](O)[C@H](O)[C@H]2O)[C@@H](O)[C@H](O)[C@H]1O)[C@H]1CC[C@]2(C)[C@@H]1[C@H](O)C[C@@H]1[C@@]3(C)CC[C@H](O[C@@H]4O[C@H](CO)[C@@H](O)[C@H](O)[C@H]4O)C(C)(C)[C@@H]3CC[C@]12C [Stevenleaf (gypenoside IX), stevenleaf] | – | – | 0.7 | 1.64 fold | – | –
14 | C=C1C[C@@]23CC[C@H]4[C@@](C)(CCC[C@@]4(C)C(=O)O[C@@H]4O[C@H](CO)[C@@H](O)[C@H](O)[C@H]4O)[C@@H]2CC[C@]1(O[C@@H]1O[C@H](CO)[C@@H](O)[C@H](O)[C@H]1O[C@@H]1O[C@H](CO)[C@@H](O)[C@H](O)[C@H]1O)C3 [Stevioside, stevioside] | no modulation of P2X7 | – | 1.0 | – | – | –
